From patent publication US20230248785A1, “METHODS AND COMPOSITIONS FOR TREATING METABOLIC CONDITIONS” (BACTANA CORP., priority 2020, published 2023)

Tested on: C57BL/6J mice on high-fat diet (prediabetes)
Assay: Fasting blood glucose in prediabetic high-fat diet mice treated with FPZ, metformin or the combination (Example 6)
Assay type: in vivo
Conditions: after 2 weeks of daily oral gavage, 100 mg/kg; control gavaged with water
Protocol: The study uses 29 C57BL/6J mice, which are placed on a high-fat diet and allowed to develop prediabetes. The mice are fasted for 16 h, and the fasting blood glucose levels are measured to be greater than 105 mg/dL. The mice are divided up into control and treatment groups, and they are treated daily for 7 weeks with either 100 mg/kg FPZ, 100 mg/kg metformin, or a combination of FPZ with metformin, given by oral gavage. Fasting blood glucose are recorded at 2, 4, and 7 weeks of treatment.

CN(C)C(=N)N=C(N)N [metformin]
reduction in fasting blood glucose level compared to the control group: 24%
